# Laboratory results published in patent publication US8163870B2, “Channel forming peptides” (Kansas State University Research Foundation, priority 2000, dated 2012).
# “And” between values parts separate entries of the source, which are not always exact repeats. Equal values may be shown once. Read-outs that look alike come from different tables or passages of the source. Non-standard residues stand in square brackets, D forms with d. No end group written: not given here. DAP = diaminopimelic acid
# Test system: MDCK cells
# Assay type: cell-based, canine
# Details: for EC50: MDCK monolayers, modified Hill equation fit, read-out: half maximal effect on Isc (EC50 / K1/2)
# Description: Cell culture: MDCK cells were a generous gift of Dr. Lawrence Sullivan (Kansas University Medical Center, Kansas City, Kans.). T84 cells were obtained from Dr. Daniel Devor (University of Pittsburgh, Pittsburgh, Pa.). MDCK and T84 cells were maintained with similar culture procedures. The culture medium was a 1:1 mixture of DMEM and Ham's F-12 (Gibco BRL, Grand Island, N.Y.) supplemented with 5% heat inactivated fetal bovine serum (BioWhittaker, Walkersville, Md.), and 1% penicillin and streptomycin (Gibco BRL). Cells were grown in plastic culture flasks in a humidified environment with 5% CO2 at 37° C. and passaged every 5-7 days. For Ussing chamber experiments, cells were plated on 1.13 cm^2 permeable supports (Snapwell™, Costar®, Cambridge, Mass.) at a density of approximately 1×10^6 cells/well and incubated in DMEM/F-12 supplemented with FBS and antibiotics (changed every other day) for 2-3 weeks prior to being mounted in modified Ussing flux chambers.
# To form monolayers, the cells were plated onto the upper surface of a permeable membrane that forms the bottom of a plastic well. Two types were used. One was the Transwell™ insert (Costar®, Cambridge, Mass.) supported in a six-well tissue culture plate and the other type was the Snapwell™ (Costar®, Cambridge, Mass.). During incubation, the medium was replaced at 48-72 hour intervals. Confluent monolayers formed within 72 hours. Experiments were performed on the monolayers 6-9 days after the initial plating. Net fluid secretion responses were optimal after six days.
# Solutions: Ringer solution was made fresh daily. The final concentration (in mM) was 120 NaCl, 25 NaHCO3 3.3 KH2HPO4, 0.8 K2HPO4, 1.2 MgCl2, 1.2 CaCl2, (290±2 mOsmol). All components of the Ringer solution were from Sigma (St. Louis, Mo.).
# (§1) Epithelial electrical measurements: Transepithelial ion transport was evaluated in a modified Ussing chamber (Model DCV9, Navicyte, San Diego, Calif.). The Ussing chamber's fluid resistance compensation was completed in Ringer solution (see below). For electrical measurements cell monolayers were bathed in Ringer solution maintained at 37° C. and continuously bubbled with 5% CO2:95% O2. The transepithelial membrane potential (Vte) was clamped to zero and the transepithelial short circuit current (Isc), an indicator of net ion transport, was measured continuously with a voltage clamp apparatus (Model 558C, University of Iowa, Department of Bioengineering, Iowa City, Iowa). Data were digitally acquired at 1 Hz with a Macintosh computer (Apple Computer, Cuppertino, Calif.) using Aqknowledge software (ver. 3.2.6, BIOPAC Systems, Santa Barbara, Calif.) with an MP100A-CE interface.
# as §1, with “Transepithelial” for “Epithelial electrical measurements: Transepithelial”, “(composition (in mM) was 120 NaCl, 25 NaHCO3 3.3 KH2HPO4, 0.8 K2HPO4, 1.2 MgCl2, 1.2 CaCl2).” for “(see below).”
# MDCK cell monolayers (in the presence of 1-EBIO to maximize basolateral membrane K^+ conductance) were exposed on the apical aspect to escelating peptide concentrations. Maximal change in Isc (relative to the Isc prior to peptide exposure) was recorded following each increment in apical peptide concentration. […]
Compound,Activity profile in MDCK cells (peptide at 500 μM),other results
"CCn1c(=O)[nH]c2ccccc21 [1-EBIO, reference compound]",,"effect on ISC or gTE (MDCK pretreatment, basal conditions): no effect"
AARVGLGITT V (AARVGLGITTV; Modified Homo sapiens) [SEQ ID No. 52],<1.0 at 500 μM μA/cm2,
ARSGSSQTTM T (ARSGSSQTTMT; Modified Homo sapiens) [SEQ ID No. 51],<1.0 at 500 μM μA/cm2,
ARSGSSQTTMTLVTTIGLGVRAPKKKK (ARSGSSQTTMTLVTTIGLGVRAPKKKK; Modified Homo sapiens) [SEQ ID No. 17],3.6 at 500 μM μA/cm2,
GITTVLTMTTQSSGSRAKKKK (GITTVLTMTTQSSGSRAKKKK; Modified Homo sapiens) [SEQ ID No. 44],<1.0 at 500 μM μA/cm2,
GLGITTVLTMTTQSSGSRAKKKK (GLGITTVLTMTTQSSGSRAKKKK; Modified Homo sapiens) [SEQ ID No. 42],3.3 at 500 μM μA/cm2,
ITTVLTMTTQ SSGSRAKKKK (ITTVLTMTTQSSGSRAKKKK; Modified Homo sapiens) [SEQ ID No. 45],<1.0 at 500 μM μA/cm2,
KKKKAARVGLGITTVVTTIGLGVRAA (KKKKAARVGLGITTVVTTIGLGVRAA; Modified Homo sapiens) [SEQ ID No. 28],,Activity profile in MDCK cells (peptide at 100 μM): 17.3 at 100 μM μA/cm2
"KKKKAARVGLGITTVLVTTIGLGVRAA [SEQ ID No. 27, KKKKAARVGL GITTVLVTTI GLGVRAA]",,EC50 (listed as SEQ ID NO. 27): 50 µM and ~40 µM; EC50: 40 µM
KKKKARSGSSQTTMTLARSGSSQTTMT (KKKKARSGSSQTTMTLARSGSSQTTMT; Modified Homo sapiens) [SEQ ID No. 25],<1.0 at 500 μM μA/cm2,
KKKKARSGSSQTTMTLTMTTQSSGSRA (KKKKARSGSSQTTMTLTMTTQSSGSRA; Modified Homo sapiens) [SEQ ID No. 23],4.2 at 500 μM μA/cm2,
KKKKARSGSSQTTMTLVTTIGLGVRAA (KKKKARSGSSQTTMTLVTTIGLGVRAA; Modified Homo sapiens) [SEQ ID No. 4],,Activity profile in MDCK cells (peptide at 300 μM): 18.7 at 300 μM μA/cm2
KKKKPARVGL GITTVL (KKKKPARVGLGITTVL; Modified Homo sapiens) [SEQ ID No. 40],1.5 at 500 μM μA/cm2,
KKKKPARVGLGITTVLAARVGLGITTV (KKKKPARVGLGITTVLAARVGLGITTV; Modified Homo sapiens) [SEQ ID No. 21],,Activity profile in MDCK cells (peptide at 250 μM): 8.0 at 250 μM μA/cm2
KKKKPARVGLGITTVLPARVGLGITTV (KKKKPARVGLGITTVLPARVGLGITTV; Modified Homo sapiens) [SEQ ID No. 20],<1.0 at 500 μM μA/cm2,
KKKKPARVGL GITTVLT (KKKKPARVGLGITTVLT; Modified Homo sapiens) [SEQ ID No. 39],1.8 at 500 μM μA/cm2,
KKKKPARVGL GITTVLTM (KKKKPARVGLGITTVLTM; Modified Homo sapiens) [SEQ ID No. 38],6.8 at 500 μM μA/cm2,
KKKKPARVGL GITTVLTMT (KKKKPARVGLGITTVLTMT; Modified Homo sapiens) [SEQ ID No. 37],8.7 at 500 μM μA/cm2,
KKKKPARVGL GITTVLTMTT (KKKKPARVGLGITTVLTMTT; Modified Homo sapiens) [SEQ ID No. 36],8.8 at 500 μM μA/cm2,
KKKKPARVGLGITTVLTMTTQ (KKKKPARVGLGITTVLTMTTQ; Modified Homo sapiens) [SEQ ID No. 35],13.1 at 500 μM μA/cm2,

Compound,Activity profile in MDCK cells (peptide at 500 μM),other results
KKKKPARVGLGITTVLTMTTQR (KKKKPARVGLGITTVLTMTTQR; Modified Homo sapiens) [SEQ ID No. 14],20.0 at 500 μM μA/cm2,
KKKKPARVGLGITTVLTMTTQS (KKKKPARVGLGITTVLTMTTQS; Modified Homo sapiens) [SEQ ID No. 34],20.3 at 500 μM μA/cm2,
KKKKPARVGLGITTVLTMTTQSSGS (KKKKPARVGLGITTVLTMTTQSSGS; Modified Homo sapiens) [SEQ ID No. 33],18.4 at 500 μM μA/cm2,
KKKKPARVGLGITTVLTMTTQSSGSRAKKKK (KKKKPARVGLGITTVLTMTTQSSGSRAKKKK; Modified Homo sapiens) [SEQ ID No. 47],5.0 at 500 μM μA/cm2,
KKKKPARVGLGITTVLTMTTRS (KKKKPARVGLGITTVLTMTTRS; Modified Homo sapiens) [SEQ ID No. 13],24.0 at 500 μM μA/cm2,
KKKKPARVGL GITTVLTRTT (DAP)S (KKKKPARVGLGITTVLTRTT[DAP]S) [SEQ ID No. 32],24.0 at 500 μM μA/cm2,
KKKKPARVGLGITTVLTRTTQS (KKKKPARVGLGITTVLTRTTQS; Modified Homo sapiens) [SEQ ID No. 15],<1.0 at 500 μM μA/cm2,
KKKKPARVGLGITTVWTMTTQSSGSRA (KKKKPARVGLGITTVWTMTTQSSGSRA; Modified Homo sapiens) [SEQ ID No. 10],20.0 at 500 μM μA/cm2,
KKKKTMTTQSSGSRALARSGSSQTTMT (KKKKTMTTQSSGSRALARSGSSQTTMT; Modified Homo sapiens) [SEQ ID No. 24],<1.0 at 500 μM μA/cm2,
KKKKTMTTQSSGSRALTMTTQSSGSRA (KKKKTMTTQSSGSRALTMTTQSSGSRA; Modified Homo sapiens) [SEQ ID No. 6],<1.0 at 500 μM μA/cm2,
KKKKTMTTQSSGSRALVTTIGLGVRAA (KKKKTMTTQSSGSRALVTTIGLGVRAA; Modified Homo sapiens) [SEQ ID No. 7],<1.0 at 500 μM μA/cm2,
KKKKVTTIGLGVRAPLARSGSSQTTMT [SEQ ID No. 8],<1.0 at 500 μM μA/cm2,
KKKKVTTIGLGVRAPLPARVGLGITTV (KKKKVTTIGLGVRAPLPARVGLGITTV; Modified Homo sapiens) [SEQ ID No. 22],<1.0 at 500 μM μA/cm2,
LGITTVLTMTTQSSGSRAKKKK (LGITTVLTMTTQSSGSRAKKKK; Modified Homo sapiens) [SEQ ID No. 43],<1.0 at 500 μM μA/cm2,
LTMTTQSSGS RAKKKK (LTMTTQSSGSRAKKKK; Modified Homo sapiens) [SEQ ID No. 46],<1.0 at 500 μM μA/cm2,
PARVGLGITT V (PARVGLGITTV; Modified Homo sapiens) [SEQ ID No. 48],<1.0 at 500 μM μA/cm2,
RVGLGITTVLTMTTQSSGSRAKKKK (RVGLGITTVLTMTTQSSGSRAKKKK; Modified Homo sapiens) [SEQ ID No. 41],6.3 at 500 μM μA/cm2,
TMTTQSSGSR A (TMTTQSSGSRA; Modified Homo sapiens) [SEQ ID No. 49],<1.0 at 500 μM μA/cm2,
VTTIGLGVRA A (VTTIGLGVRAA; Modified Homo sapiens) [SEQ ID No. 53],<1.0 at 500 μM μA/cm2,
VTTIGLGVRA P (VTTIGLGVRAP; Modified Homo sapiens) [SEQ ID No. 50],<1.0 at 500 μM μA/cm2,
